From ChEMBL document CHEMBL4007434, “Indazole-Based Covalent Inhibitors To Target Drug-Resistant Epidermal Growth Factor Receptor” (J Med Chem, 2017) come the findings set out here.

Series [1] concerns the target Tyrosine-protein kinase Blk (Homo sapiens) (UniProt P51451). Put plainly: Inhibition of full-length recombinant human His-tagged cytoplasmic BLK expressed in baculovirus expression system at 1 uM by Z'-LYTE assay.
Series [2] has as its system Liver. The series is described as follows: Stability in human liver microsomes at 3 uM up to 50 mins by LCMS analysis. In kind it is ADME, microsome. A general note: Liver microsomes are a subcellular fraction often used to study metabolism.
In series [3] the target is T1, Epidermal growth factor receptor (Homo sapiens, UniProt P00533, L858R/T790M). The series is described as follows: Reversible inhibition of human N-terminal GST-tagged EGFR L858R/T790M double mutant cytoplasmic domain (669 to 1210 end amino acid residues) expressed in baculovirus expression system using TK peptide substrate preincubated for 2 to 90 mins followed by 6-fold dilution.

Series [4] concerns the target T2, Epidermal growth factor receptor (Homo sapiens, UniProt P00533). The series is described as follows: Ratio of Kinact to Ki for reversible inhibition of wild-type human N-terminal GST-tagged EGFR cytoplasmic domain (669 to 1210 end amino acid residues) expressed in baculovirus expression system.
In series [5] the test system is Epidermal growth factor receptor (Homo sapiens), P00533 [L861Q]. The following applies: 1 uM.
The subject of series [6] is Epidermal growth factor receptor (Homo sapiens), P00533 [T790M]. The series is described as follows: Binding affinity to EGFR T790M mutant (unknown origin) assessed as covalent adduct formation at 100 uM after 1 hr by ESI-MS analysis.
The nature of series [7]: Stability in mouse plasma assessed as compound remaining at 5 uM after 1 hr by LCMS analysis. In kind it is ADME, cell-free. The following applies: read-out: Stability.
Series [8] has as its target T3, Epidermal growth factor receptor (Homo sapiens, UniProt P00533, L858R).
Series [9] has as its target T3, Epidermal growth factor receptor. The series is described as follows: Reversible inhibition of human N-terminal GST-tagged EGFR L858R mutant cytoplasmic domain (669 to 1210 end amino acid residues) expressed in baculovirus expression system using TK peptide substrate preincubated for 2 to 90 mins followed by 6-fold dilution.
Series [10] concerns Epidermal growth factor receptor (Homo sapiens), P00533 [L858R]. The following applies: 1 uM.
Series [11] concerns the target T2, Epidermal growth factor receptor. In kind it is ADME.
The test system of series [12] is Epidermal growth factor receptor (Homo sapiens), P00533 [L858R,T790M]. The following applies: 1 uM.
Series [13] concerns the target T4, Cytoplasmic tyrosine-protein kinase BMX (Homo sapiens) (UniProt P51813).
T4 sequence (whole entry): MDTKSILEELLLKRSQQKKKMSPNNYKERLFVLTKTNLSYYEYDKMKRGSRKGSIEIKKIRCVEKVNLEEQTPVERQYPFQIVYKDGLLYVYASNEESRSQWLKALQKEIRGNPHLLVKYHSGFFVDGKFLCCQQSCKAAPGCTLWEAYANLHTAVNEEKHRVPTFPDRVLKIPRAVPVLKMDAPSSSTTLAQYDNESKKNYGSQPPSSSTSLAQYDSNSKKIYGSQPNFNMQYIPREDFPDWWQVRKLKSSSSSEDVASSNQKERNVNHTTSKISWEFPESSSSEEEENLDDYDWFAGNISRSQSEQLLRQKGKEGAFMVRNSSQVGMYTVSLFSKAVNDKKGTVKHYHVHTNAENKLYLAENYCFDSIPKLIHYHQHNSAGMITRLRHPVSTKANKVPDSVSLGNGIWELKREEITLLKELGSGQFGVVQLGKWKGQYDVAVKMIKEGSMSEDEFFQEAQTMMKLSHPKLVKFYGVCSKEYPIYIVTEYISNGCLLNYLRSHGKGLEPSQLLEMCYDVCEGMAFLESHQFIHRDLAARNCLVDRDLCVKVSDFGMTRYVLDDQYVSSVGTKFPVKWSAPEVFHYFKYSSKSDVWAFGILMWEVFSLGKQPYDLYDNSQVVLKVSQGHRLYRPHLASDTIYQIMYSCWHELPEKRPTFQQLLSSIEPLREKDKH
Put plainly: Inhibition of full-length recombinant human His-tagged cytoplasmic BMX expressed in baculovirus expression system at 1 uM by Z'-LYTE assay.

Series [14] addresses T2, Epidermal growth factor receptor. The series is described as follows: Inhibition of wild-type EGFR in human A431 cells assessed as reduction in cell viability after 96 hrs by CellTiterGlo assay. In kind it is ADME, cell-based. Background: ATP-based viability assays read luminescence as a measure of living cells.
For series [15], the target named is T1, Epidermal growth factor receptor.
Series [16] deals with T2, Epidermal growth factor receptor. Put plainly: Reversible inhibition of wild-type human N-terminal GST-tagged EGFR cytoplasmic domain (669 to 1210 end amino acid residues) expressed in baculovirus expression system using TK peptide substrate preincubated for 2 to 90 mins followed by 6-fold dilution.
The target in series [17] is Receptor tyrosine-protein kinase erbB-2 (Homo sapiens) (UniProt P04626). Put plainly: Inhibition of ERBB2 (unknown origin) at 1 uM by Z'-LYTE assay.
Sequence of Receptor tyrosine-protein kinase erbB-2 (Homo sapiens) (P04626 whole entry): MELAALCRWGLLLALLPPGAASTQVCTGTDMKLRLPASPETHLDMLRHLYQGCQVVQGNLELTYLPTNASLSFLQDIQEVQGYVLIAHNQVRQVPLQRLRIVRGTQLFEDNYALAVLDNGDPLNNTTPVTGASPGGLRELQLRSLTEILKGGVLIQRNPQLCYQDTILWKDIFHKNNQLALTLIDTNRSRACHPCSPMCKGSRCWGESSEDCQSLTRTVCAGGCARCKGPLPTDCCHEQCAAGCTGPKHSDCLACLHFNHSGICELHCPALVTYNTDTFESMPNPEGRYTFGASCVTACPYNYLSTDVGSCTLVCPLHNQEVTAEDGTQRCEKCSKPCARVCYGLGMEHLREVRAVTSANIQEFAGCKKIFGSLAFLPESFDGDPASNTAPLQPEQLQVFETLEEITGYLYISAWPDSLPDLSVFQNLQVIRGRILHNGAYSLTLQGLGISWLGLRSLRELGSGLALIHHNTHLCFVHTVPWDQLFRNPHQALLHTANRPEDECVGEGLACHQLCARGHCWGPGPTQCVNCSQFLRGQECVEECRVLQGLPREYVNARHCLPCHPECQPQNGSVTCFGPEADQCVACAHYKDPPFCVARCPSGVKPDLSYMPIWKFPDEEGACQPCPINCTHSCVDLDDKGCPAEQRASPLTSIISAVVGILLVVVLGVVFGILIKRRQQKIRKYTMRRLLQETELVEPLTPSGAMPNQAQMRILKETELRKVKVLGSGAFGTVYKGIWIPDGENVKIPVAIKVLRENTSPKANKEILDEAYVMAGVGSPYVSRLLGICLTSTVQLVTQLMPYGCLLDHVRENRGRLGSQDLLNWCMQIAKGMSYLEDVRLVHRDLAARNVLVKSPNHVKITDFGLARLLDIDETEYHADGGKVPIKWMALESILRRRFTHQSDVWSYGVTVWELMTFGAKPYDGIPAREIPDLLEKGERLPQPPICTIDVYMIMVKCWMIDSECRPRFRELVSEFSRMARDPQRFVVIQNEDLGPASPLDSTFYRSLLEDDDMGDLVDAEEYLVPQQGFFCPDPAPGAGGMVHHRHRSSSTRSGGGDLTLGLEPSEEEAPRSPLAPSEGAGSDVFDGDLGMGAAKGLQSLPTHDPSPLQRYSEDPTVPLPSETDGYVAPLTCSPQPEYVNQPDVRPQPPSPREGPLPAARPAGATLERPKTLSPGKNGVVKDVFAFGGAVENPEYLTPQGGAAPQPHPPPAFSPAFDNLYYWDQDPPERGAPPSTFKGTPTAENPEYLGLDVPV
The subject of series [18] is Liver. The series is described as follows: Stability in mouse liver microsomes at 3 uM up to 50 mins by LCMS analysis. In kind it is ADME, microsome.
The test system of series [19] is Epidermal growth factor receptor (Homo sapiens), P00533 [T790M]. Conditions: 1 uM.
Series [20] concerns Epidermal growth factor receptor (Homo sapiens), P00533 [L858R,T790M]. The following applies: 100 nM.
Series [21] relates to Epidermal growth factor receptor (Homo sapiens), P00533 [L858R,T790M,C797S]. Put plainly: Inhibition of EGFR L858R/T790M/C797S triple mutant (unknown origin) by HTRF assay. Background: In TR-FRET formats the signal depends on donor and acceptor labels being close together.
In series [22] the test system is Epidermal growth factor receptor (Homo sapiens), P00533 [L858R,T790M]. Conditions: 100 nM. This is another data set of the same source.
Series [23] deals with Receptor tyrosine-protein kinase erbB-4 (Homo sapiens) (UniProt Q15303). Put plainly: Inhibition of recombinant truncated human His/IgG1 Fc-tagged ERBB4 expressed in mammalian expression system at 1 uM by Z'-LYTE assay.
Sequence of Receptor tyrosine-protein kinase erbB-4 (Homo sapiens) (Q15303 whole entry, the tested form may be a part): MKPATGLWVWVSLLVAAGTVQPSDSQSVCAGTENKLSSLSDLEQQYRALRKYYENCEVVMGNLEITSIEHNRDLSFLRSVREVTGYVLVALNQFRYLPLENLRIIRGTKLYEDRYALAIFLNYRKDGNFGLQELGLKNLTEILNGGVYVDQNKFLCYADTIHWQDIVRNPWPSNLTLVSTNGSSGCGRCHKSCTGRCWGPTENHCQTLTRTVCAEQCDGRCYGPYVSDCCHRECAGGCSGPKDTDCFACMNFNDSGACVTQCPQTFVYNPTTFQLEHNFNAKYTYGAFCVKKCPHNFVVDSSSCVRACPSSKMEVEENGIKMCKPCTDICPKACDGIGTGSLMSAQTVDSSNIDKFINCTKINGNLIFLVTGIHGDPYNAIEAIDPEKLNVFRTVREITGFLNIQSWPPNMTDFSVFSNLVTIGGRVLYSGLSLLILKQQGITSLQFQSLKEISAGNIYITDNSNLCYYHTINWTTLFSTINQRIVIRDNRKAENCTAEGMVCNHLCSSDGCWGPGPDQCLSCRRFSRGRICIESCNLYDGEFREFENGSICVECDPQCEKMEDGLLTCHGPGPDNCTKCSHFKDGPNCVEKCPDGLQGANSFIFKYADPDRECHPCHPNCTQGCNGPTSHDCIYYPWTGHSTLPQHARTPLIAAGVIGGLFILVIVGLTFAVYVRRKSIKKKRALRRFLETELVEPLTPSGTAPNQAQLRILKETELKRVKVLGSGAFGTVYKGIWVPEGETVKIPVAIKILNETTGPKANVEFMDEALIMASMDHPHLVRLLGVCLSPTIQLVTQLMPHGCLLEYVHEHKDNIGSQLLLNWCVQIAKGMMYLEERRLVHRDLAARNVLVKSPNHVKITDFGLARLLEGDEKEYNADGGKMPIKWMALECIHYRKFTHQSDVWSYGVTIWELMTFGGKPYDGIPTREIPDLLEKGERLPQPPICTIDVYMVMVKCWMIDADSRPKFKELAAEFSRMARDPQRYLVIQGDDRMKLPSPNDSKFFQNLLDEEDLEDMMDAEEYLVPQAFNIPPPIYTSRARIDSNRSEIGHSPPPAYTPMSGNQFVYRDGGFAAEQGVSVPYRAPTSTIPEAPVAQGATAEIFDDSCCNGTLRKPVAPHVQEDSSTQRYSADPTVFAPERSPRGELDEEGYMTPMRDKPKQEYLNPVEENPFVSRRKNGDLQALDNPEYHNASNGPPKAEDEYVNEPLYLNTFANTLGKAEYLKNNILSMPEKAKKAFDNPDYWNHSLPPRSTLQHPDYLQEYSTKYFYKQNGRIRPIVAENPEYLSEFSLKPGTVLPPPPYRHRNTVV

Activity calls are given as the source filed them. The calls are words filed in the database; no cut-off is given here.

Sequence of Tyrosine-protein kinase Blk (Homo sapiens) (P51451 2-505 limits assumed): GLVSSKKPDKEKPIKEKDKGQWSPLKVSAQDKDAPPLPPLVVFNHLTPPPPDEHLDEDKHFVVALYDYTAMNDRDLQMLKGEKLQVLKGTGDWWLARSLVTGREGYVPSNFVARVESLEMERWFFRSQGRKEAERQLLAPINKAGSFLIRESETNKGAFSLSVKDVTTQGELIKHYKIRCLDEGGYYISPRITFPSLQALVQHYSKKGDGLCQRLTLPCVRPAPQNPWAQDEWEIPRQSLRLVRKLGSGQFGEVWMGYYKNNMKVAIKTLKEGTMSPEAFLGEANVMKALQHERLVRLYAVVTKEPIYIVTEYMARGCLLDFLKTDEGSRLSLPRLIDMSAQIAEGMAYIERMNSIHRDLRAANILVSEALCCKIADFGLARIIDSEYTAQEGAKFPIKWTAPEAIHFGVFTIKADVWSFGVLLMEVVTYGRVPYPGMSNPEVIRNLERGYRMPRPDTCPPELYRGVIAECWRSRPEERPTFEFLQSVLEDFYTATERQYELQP

Consider `C=CC(=O)Nc1cc(Nc2n[nH]c3cc(Nc4cccc(F)c4)ccc23)c(OC)cc1N(C)CCN(C)C`, for which the inhibition (in general, the percentage by which the read-out fell short of the control) is over 85% in [1]; over 95% in series [5]; over 95% in [10]; over 95% in series [12]; over 85% in series [13]; over 95% in [19]. Further, the Stability result in [2] and in [18] was “Stable” each time. Moreover, the Ki (as a rule, the equilibrium dissociation constant of an inhibitor or competing ligand from its target) in series [3] was 7.4 nM; in [9], 3.9 nM; in [16], 5.1 nM. Moreover, the kinact/KI (as a rule, the maximal inactivation rate divided by the concentration that gives half of it) in [4] was 470000 M⁻¹ s⁻¹. Moreover, the outcome in [6] was Active. In addition, the remaining at 1 h, 5 µM in series [7] is over 90%. For the same compound, the IC50 in series [8], in series [11] and in series [15] was under 1 nM in each case. Besides, in [14], the EC50 (commonly the concentration needed to bring the measured effect to its halfway point) turned out to be 3100 nM. For the same compound, the inhibition entry in series [17], in [20], in series [22] and in [23] was “Active” each time. Moreover, the inhibition result in series [21] was “inactive”.
